Assay results: article PMC9127186, “Molecular Basis Underlying Hepatobiliary and Renal Excretion of Phenolic Acids of Salvia miltiorrhiza Roots (Danshen)” (Frontiers in Pharmacology, 2022)
Like-named read-outs stand apart in the source and are kept apart here.

Assays:
rat Oct1 = target: T1, rat Oct1 (Rattus norvegicus, UniProt Q63089); experiment: Cellular transport assay, HEK-293 cells expressing rat Oct1; conditions: Danshen phenolic acid at 100 μM final concentration, 10 min; rat Oct1-transfected vs mock cells
T1 sequence (Q63089 1-556): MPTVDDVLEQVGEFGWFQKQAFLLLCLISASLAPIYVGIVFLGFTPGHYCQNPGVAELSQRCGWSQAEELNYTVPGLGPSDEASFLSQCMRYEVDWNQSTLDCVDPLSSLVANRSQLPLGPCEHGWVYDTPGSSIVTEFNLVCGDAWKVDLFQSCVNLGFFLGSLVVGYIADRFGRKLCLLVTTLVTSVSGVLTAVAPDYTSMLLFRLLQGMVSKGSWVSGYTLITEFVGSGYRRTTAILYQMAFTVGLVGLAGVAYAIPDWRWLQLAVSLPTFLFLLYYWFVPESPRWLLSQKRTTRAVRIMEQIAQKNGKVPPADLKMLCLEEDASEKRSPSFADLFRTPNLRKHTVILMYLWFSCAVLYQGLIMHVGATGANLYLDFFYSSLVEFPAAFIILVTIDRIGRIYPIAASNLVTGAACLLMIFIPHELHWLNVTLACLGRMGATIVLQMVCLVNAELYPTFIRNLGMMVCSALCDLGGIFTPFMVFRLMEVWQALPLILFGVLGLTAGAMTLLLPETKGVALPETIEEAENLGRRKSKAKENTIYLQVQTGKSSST

human OCT2 [1] = target: T2, human OCT2 (Homo sapiens, UniProt O15244); experiment: Cellular transport assay, HEK-293 cells expressing human OCT2; conditions: Danshen phenolic acid at 100 μM final concentration, 10 min; human OCT2-transfected vs mock cells
T2 sequence (O15244 1-555): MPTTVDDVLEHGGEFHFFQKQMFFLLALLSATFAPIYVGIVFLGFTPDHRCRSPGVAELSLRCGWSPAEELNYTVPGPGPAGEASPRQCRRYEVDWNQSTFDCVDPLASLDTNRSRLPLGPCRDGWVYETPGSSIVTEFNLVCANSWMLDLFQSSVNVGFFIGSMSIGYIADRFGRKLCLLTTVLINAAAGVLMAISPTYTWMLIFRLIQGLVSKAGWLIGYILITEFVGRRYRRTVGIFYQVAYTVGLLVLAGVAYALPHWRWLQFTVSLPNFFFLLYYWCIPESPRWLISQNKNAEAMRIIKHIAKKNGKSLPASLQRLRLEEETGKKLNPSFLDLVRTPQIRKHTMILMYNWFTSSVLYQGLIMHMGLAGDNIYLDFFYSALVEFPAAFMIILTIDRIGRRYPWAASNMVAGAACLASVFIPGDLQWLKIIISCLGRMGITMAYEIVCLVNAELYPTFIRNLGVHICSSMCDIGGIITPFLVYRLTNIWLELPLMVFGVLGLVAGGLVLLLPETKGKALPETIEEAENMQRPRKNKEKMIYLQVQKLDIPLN

rat Oatp1a1 = target: T3, rat Oatp1a1 (Rattus norvegicus, UniProt P46720); experiment: Cellular transport assay, HEK-293 cells expressing rat Oatp1a1; conditions: Danshen phenolic acid at 100 μM final concentration, 10 min; rat Oatp1a1-transfected vs mock cells
T3 sequence (P46720 1-670): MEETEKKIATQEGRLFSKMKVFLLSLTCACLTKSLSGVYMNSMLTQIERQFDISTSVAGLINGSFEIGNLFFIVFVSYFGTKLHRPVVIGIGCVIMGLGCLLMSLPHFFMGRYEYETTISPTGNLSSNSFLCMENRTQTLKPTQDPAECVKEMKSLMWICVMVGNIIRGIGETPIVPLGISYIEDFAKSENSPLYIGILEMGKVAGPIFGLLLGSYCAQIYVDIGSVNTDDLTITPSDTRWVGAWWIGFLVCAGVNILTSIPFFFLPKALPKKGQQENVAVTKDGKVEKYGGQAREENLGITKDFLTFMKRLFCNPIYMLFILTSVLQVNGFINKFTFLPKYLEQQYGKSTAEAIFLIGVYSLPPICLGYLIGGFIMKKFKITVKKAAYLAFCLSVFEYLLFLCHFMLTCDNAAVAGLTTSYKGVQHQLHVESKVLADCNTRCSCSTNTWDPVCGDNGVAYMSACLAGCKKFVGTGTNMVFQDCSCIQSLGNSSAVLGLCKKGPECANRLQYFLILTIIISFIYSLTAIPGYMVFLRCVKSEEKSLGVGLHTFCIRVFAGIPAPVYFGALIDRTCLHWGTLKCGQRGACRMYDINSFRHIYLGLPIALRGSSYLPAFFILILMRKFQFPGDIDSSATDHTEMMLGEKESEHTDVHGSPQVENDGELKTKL

rat Pept1 = target: T4, rat Pept1 (Rattus norvegicus, UniProt P51574); conditions: 10 min, 100 μM, pH 6
T4 sequence (P51574 1-710): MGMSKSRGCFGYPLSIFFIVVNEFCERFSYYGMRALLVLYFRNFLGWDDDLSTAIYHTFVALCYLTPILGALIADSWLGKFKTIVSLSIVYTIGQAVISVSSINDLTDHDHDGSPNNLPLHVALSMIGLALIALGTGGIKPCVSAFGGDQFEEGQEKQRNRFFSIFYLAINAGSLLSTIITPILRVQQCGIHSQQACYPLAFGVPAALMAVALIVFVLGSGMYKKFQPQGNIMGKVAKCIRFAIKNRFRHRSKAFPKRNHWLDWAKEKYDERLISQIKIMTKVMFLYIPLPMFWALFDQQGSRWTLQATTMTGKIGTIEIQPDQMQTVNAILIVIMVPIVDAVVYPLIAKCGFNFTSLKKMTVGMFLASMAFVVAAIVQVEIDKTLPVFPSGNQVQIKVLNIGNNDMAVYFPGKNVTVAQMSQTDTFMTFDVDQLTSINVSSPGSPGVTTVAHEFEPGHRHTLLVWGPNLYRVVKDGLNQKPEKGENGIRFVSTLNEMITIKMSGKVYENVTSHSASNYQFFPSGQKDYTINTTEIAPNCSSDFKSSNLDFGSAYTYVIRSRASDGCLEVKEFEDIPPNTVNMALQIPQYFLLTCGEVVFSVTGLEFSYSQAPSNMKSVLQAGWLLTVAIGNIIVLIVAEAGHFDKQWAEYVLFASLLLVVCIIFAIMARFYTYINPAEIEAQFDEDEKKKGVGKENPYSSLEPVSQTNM

human OCT2 [2] = target: T2, human OCT2; conditions: 10 min, 100 μM

| Molecule | TransportTC/TransportMC ratio (net transport ratio) (rat Oct1) | TransportTC/TransportMC ratio (net transport ratio) (human OCT2 [1]) | TransportTC/TransportMC ratio (net transport ratio) (rat Oatp1a1) | TransportTC/TransportMC ratio (net transport ratio) (rat Pept1) | TransportTC/TransportMC ratio (net transport ratio) (human OCT2 [2]) |
| --- | --- | --- | --- | --- | --- |
| O=C(O)Cc1c(/C=C/C(=O)O[C@H](Cc2ccc(O)c(O)c2)C(=O)O)ccc(O)c1O [Salvianolic acid D, salvianolic acid D] | 1.23 ± 0.54 | 0.85 ± 0.26 | 2.45 ± 1.88 | – | – |
| O=C(/C=C/c1ccc(O)c2c1[C@H](C(=O)O)[C@@H](c1ccc(O)c(O)c1)O2)O[C@H](Cc1ccc(O)c(O)c1)C(=O)O [Lithospermic acid, lithospermic acid] | 1.18 ± 0.06 | 0.89 ± 0.31 | 1.41 ± 0.67 | – | – |
| salvianolic acid B | 0.66 ± 0.17 | 0.75 ± 0.23 | 1.91 ± 0.42 | – | – |
| O=C(O)c1ccc(O)c(O)c1 [Protocatechuic acid, protocatechuic acid] | 1.19 ± 0.41 | 0.75 ± 0.35 | 1.66 ± 0.77 | – | – |
| O=C(/C=C/c1ccc(O)c(O)c1/C=C/c1ccc(O)c(O)c1)O[C@H](Cc1ccc(O)c(O)c1)C(=O)O [Salvianolic acid A, salvianolic acid A] | – | – | – | 1.32 ± 0.13 | 0.93 ± 0.32 |
| O=C(/C=C/c1ccc(O)c(O)c1)O[C@H](Cc1ccc(O)c(O)c1)C(=O)O [Rosmarinic acid, rosmarinic acid] | – | – | – | 1.14 ± 0.13 | 0.85 ± 0.29 |
